This is an account of results in US20110117168A1, “METHODS AND COMPOSITIONS FOR SOFT TISSUE REPAIR” (AFFINERGY, INC., priority 2009, published 2011).

Ends that are not written are not given here.

One experiment deals with ECFCs. The experiment in a line: Biotinylated peptide binding to endothelial and other cells by flow cytometry. Type of experiment: cell-based, human. The following applies: biotinylated peptide 10 μM, 30 min at 4° C. The procedure:
(§1) The synthetic biotinylated binding peptide SEQ ID NO: 4 was further examined for its ability to bind endothelial cells compared to other cell types (see FIG. 16). […] ECFCs are clonally expanded cells isolated from human umbilical cord blood, and are considered highly proliferative endothelial progenitor cells (EPCs) based on their clonogenic and proliferative potential. In another experiment, binding peptide SEQ ID NO: 4 was assayed for its ability to selectively isolate endothelial cells versus smooth muscle cells in the presence of whole blood. HUVECs or UASMCs were incubated in the presence of medium containing 20% whole blood and binding peptide SEQ ID NO: 4-conjugated magnetic beads (via biotin-SA) for 30 min. The solutions containing the bead-peptide-cell complexes were then passed through a […] LS column in a magnetic field. The column was washed, and the remaining peptide-bound cells were then released from the magnetic field and counted.
A general note: Flow cytometry measures light scatter and fluorescence of single cells or particles in a stream.

Experiment [1] has as its system HUVECs. The description is as above. Type of experiment: cell-based, human. The following applies: biotinylated peptide 10 μM, 30 min at 4° C. On the procedure:
as §1

A further experiment concerns peripheral blood cells. The description is as above. Type of experiment: cell-based, human. The settings on record: biotinylated peptide 10 μM, 30 min at 4° C. The procedure: as §1
Another experiment has as its system human MSCs. Put plainly: Capture of cultured MSCs with peptide on […] Streptavidin microbeads in LS columns. Type of experiment: cell-based. The following applies: 160,000 cultured human MSCs, peptide 20 μM on Streptavidin microbeads, LS column. On the procedure:
In this experiment the ability of the biotinylated cell binding peptide SEQ ID NO: 4 to capture human MSCs from a homogeneous cultured cell population was examined. The cell binding peptide SEQ ID NO: 4 was biotinylated as described herein at Example 2. The cell binding peptide SEQ ID NO: 4, and a non-binding control peptide, were added to separate 300 μl volumes of […] BIOTEC Streptavidin microbeads at a concentration of 20 μM. These beads are made from iron filings, coated with a dextran coating which is functionalized with streptavidin moieties. Peptide was incubated with beads for 45 min on ice. The 300 μl of peptide coated microbeads were added to pre-equilibrated LS columns outside of the magnetic field to evenly distribute the magnetic beads throughout the columns. Columns were then placed into a magnetic field, and excess peptide was washed away with buffer while retaining the peptide coated microbeads. Cultured and expanded human MSCs from bone marrow aspirate (160,000 cells; LONZA) were added to each LS column and allowed to pass through by gravity flow. Flowthrough was collected and cycled through the columns 5 times, after which the columns were washed with 5 ml buffer. […] The collected flowthrough with 5 ml wash and eluted cells were spun down, resuspended in a smaller volume, and counted by hemacytometer (see FIG. 17). […]

For experiment [2], the system named is HUVECs. The experiment in a line: Endothelial cell phenotype and anti-thrombogenic protein expression on peptide-modified collagen. Type of experiment: cell-based, human. The following applies: HUVECs cultured 24 hours; t-PA and 6-keto Prostaglandin F1a ELISA, flow cytometry. The procedure: Once immobilized on a vascular graft, endothelial cells must retain their characteristic properties of promoting endothelialization. Therefore, the phenotype, viability, and anti-thrombogenic protein expression profiles were evaluated for endothelial cells in the presence of collagen modified with the endothelial cell binding peptide SEQ ID NO: 4 (generated according to Example 7 using BS^3 reagent). […] Specifically, HUVECs were plated on SEQ ID NO: 4 peptide-modified collagen, collagen with 10 μM free SEQ ID NO: 4 peptide or collagen alone for 24 hours. Flow cytometry was performed using a BD […], and ELISAs were performed according to manufacturers instructions. (FIGS. 22A & 22B). Tissue-type Plasminogen Activator (t-PA) and 6-keto Prostaglandin F1a protein expression levels secreted in this assay are aligned with other reports on cultured HUVECS (Kimura and Yokoi-Hayashi, Biochim Biophys Acta, 1996, 1310:1-4; Merhi-Soussi et al., J Leukoc Biol, 2000, 68:881-9).

The subject of experiment [3] is MSCs. The experiment in a line: Adipocyte differentiation of peptide-captured MSCs (Oil Red O). Type of experiment: cell-based, human. The settings on record: 21 days in adipocyte differentiation medium. The procedure:
Adipocyte differentiation. After capture of MSCs using cell binding peptide SEQ ID NO: 4 with the […] magnetic system according to Example 6, the ability of the captured cells to differentiate into an adipocyte lineage was examined. The MSCs present in the […] column eluants (see Example 6) were cultured for 21 days in complete medium (DMEM, 10% FBS, 100 units/mL penicillin, 100 μg/mL streptomycin, and 2 mM glutamine) supplemented with 0.5 mM isobutyl methylxanthine, 1 μM dexamethasone, 10 μM insulin, 200 μM indomethacin, and 1% antibiotic/antimycotic. Following the 21 day incubation, the cells were fixed in 4% paraformaldehyde in PBS for 15 minutes, washed in 60% isopropanol for 5 minutes, and stained with Oil Red 0 (SIGMA) for 10 minutes to determine the extent of adipogenesis (see FIG. 26, panels A (undifferentiated MSCs) and panel B (adipocyte differentiated MSCs)). The image of the adipose differentiated cells (FIG. 26, panel B) contains a larger magnification inset where the lipid vacuoles are clearly visible.

In experiment [4] the test system is MSCs. Put plainly: Chondrocyte differentiation of peptide-captured MSCs (aggrecan immunostaining). Type of experiment: cell-based, human. The settings on record: 24 days in CHONDRODIFF medium. On the procedure: Chondrocyte differentiation. To examine chondrocyte differentiation, the MSCs present in the […] column eluants (see Example 6) were pelleted by centrifugation at 150×g for 5 minutes. Cells were washed once with 1 ml MACS NH CHONDRODIFF Medium without disturbing the pellet. Cells were spun again and 1 mL CHONDRODIFF Medium was added to each pellet. Every third day, medium was aspirated and replaced with fresh pre-warmed medium. After 24 days in culture, cells exposed to CHONDRODIFF medium formed cartilage plugs or nodules, whereas control cells formed only loose or small nodules. Cells were washed once with PBS and fixed in neutral buffered formalin overnight. Sections were embedded in paraffin and sectioned at 5 microns. Sections were examined by hemotoxylin and eosin staining (data not shown). Sections were further examined by immunostaining for aggrecan, a major structural component of cartilage. In FIG. 27, sections from the periphery (panels A and B) or center (panels C and D) were incubated with an antibody against aggrecan (ABCAM) (panels B and D) or with secondary detection reagents only as a control (panels A and C), then counterstained with DAPI to reveal cell nuclei. […] Control images of captured cells grown in the absence of differentiation medium could not be taken due to the small and loose nature of nodules.

“SSFWDVCQGDGTCYGGGSR (SSFWDVCQGDGTCYGGGSRGSSG-{K(biotin)}; cysteine pairing not given here) [SEQ ID NO: 4, tested biotinylated with GSSGK(biotin) or other spacer at the C-terminus]”: the “cross-reactivity with ECFCs” value in the experiment on ECFCs is on record as “strongly”. Further, the “cross-reactivity with HUVECs” value with HUVECs [1] was “strongly”. The “cross-reactivity with peripheral blood cells” value in the experiment with peripheral blood cells is on record as “no cross-reactivity”. Further, in the experiment on human MSCs, the “capture of MSCs” value is recorded as “approximately 70%”. In addition, the “endothelial cell phenotype and anti-thrombogenic protein secretion” value in the experiment on HUVECs [2] is “maintained their endothelial cell phenotype and their ability to secrete anti-thrombogenic proteins”. Moreover, the “adipocyte differentiation of captured MSCs” value in the experiment on MSCs [3] is recorded as “adipogenesis pathway remains intact”. Moreover, the “chondrocyte differentiation of captured MSCs (aggrecan)” value with MSCs [4] was “aggrecan could be detected”.
